The numbers were not newly measured in patent US20170202917A1, “PHARMACEUTICAL COMPOSITION FOR PREVENTING OR TREATING SKIN RASH” (DAEWOONG PHARMACEUTICAL CO., LTD., priority 2014, published 2017), which cites them from elsewhere.

For data set [1], the system named is skin rashes. The settings on record: prophylactic treatment.

As for `CN(C)[C@@H]1C(O)=C(C(N)=O)C(=O)[C@@]2(O)C(O)=C3C(=O)c4c(O)cccc4[C@@](C)(O)[C@H]3C[C@@H]12` [tetracycline], the “improvement in skin rashes compared with placebo” value in data set [1] is reported as 30%.
For `C#Cc1cccc(Nc2ncnc3cc(OCCOC)c(OCCOC)cc23)c1` [erlotinib], the “overall incidence of erlotinib-related skin effects (ERSEs)” value (NSCLC and PC clinical trials) is listed as 75%. In addition, the “incidence of grade 3-4 ERSEs” value (NSCLC and PC clinical trials, of the patients) is on record as “about 10%”. Besides, under “rash above the waist”, the “time to development of rash after starting treatment” value is 7 to 10 days.
